Data published in BindingDB's records for PubMed 37302340 (Chengdu University of Traditional Chinese Medicine).

Target: 5'-nucleotidase CD73 (Homo sapiens) (UniProt P21589)
Test: Binding affinity to human recombinant CD73 expressed in Sf9 cells assessed as inhibition constant by malachite green based spectrophotometer assay

Chain of 5'-nucleotidase CD73 (Homo sapiens) (P21589 whole entry, looked up): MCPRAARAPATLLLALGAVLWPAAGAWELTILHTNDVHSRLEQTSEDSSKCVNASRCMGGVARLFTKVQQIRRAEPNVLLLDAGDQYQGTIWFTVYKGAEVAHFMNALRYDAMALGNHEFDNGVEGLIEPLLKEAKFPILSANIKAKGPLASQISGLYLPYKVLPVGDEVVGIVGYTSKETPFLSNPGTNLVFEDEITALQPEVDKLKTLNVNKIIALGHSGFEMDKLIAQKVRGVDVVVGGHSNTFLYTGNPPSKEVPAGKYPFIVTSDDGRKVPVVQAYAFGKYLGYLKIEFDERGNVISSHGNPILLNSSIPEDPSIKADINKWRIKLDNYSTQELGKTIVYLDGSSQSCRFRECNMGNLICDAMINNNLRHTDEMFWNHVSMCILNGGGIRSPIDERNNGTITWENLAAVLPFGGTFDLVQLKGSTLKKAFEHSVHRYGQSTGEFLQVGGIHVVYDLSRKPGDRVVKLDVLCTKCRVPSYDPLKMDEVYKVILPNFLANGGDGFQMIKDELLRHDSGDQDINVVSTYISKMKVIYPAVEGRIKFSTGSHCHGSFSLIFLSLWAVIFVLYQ

Ki: 97 nM
SMILES: CCN(CC)c1nc(Cl)nc2c1ncn2[C@@H]1O[C@H](COCP(=O)(O)OP(=O)(O)C(Br)(Br)P(=O)(O)O)[C@@H](O)[C@H]1O
